Measured values: patent US20110190244A1, “METHOD OF TREATMENT OF EGFR INHIBITOR TOXICITY” (priority 2010, published 2011)
Like-named read-outs stand apart in the source and are kept apart here.

Experiments:
[1] = system: STS; conditions: cited from earlier work
[2] = system: carcinogen-induced mammary tumours; conditions: ovariectomized rats; cited from earlier work
[3] = Oral administration to radiotelemetry instrumented dogs for seven days; conditions: highest tested dose, versus 80 mg oral dose in patients
[4] = cited from earlier work; for no observed adverse effect level (NOAEL): rats, repeated oral dose
[5] = cited from earlier work
[6] = rats, 2000 mg/kg oral; cited from earlier work
[7] = female patients, 80 mg oral dose; cited from earlier work
[8] = dogs, 50, 250 and 1000 mg/kg/day; cited from earlier work
[9] = cited from earlier work; remark: listed apart in the source
[10] = rats, single oral doses up to 1200 mg/kg; cited from earlier work
[11] = system: isolated Purkinje fibres; conditions: only at a high concentration of 50 μM; cited from earlier work
[12] = cited from earlier work; remark: listed apart in the source
[13] = molecular target: T1, STS (Homo sapiens, UniProt P08842); conditions: 40 mg dose; cited from earlier work
T1 construct: from tissue; host or cells: peripheral blood lymphocytes / mononuclear cells and breast tumour tissue of patients
T1 sequence (P08842 22-583): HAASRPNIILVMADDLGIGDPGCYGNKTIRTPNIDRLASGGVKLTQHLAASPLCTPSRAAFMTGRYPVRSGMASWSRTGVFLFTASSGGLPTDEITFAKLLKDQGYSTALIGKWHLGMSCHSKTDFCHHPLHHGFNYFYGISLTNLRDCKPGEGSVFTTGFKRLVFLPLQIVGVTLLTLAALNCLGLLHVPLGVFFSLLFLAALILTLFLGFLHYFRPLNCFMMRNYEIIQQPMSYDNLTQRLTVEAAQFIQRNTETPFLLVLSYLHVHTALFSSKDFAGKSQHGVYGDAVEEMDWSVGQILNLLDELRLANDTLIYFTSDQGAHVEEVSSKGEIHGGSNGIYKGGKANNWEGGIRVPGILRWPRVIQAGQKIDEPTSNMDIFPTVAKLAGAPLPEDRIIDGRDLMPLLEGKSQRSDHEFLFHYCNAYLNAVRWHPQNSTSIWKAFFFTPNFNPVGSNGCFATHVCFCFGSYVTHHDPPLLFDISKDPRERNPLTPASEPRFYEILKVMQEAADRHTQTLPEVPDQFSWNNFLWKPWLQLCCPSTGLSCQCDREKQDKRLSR

[14] = mice, 2000 mg/kg oral; cited from earlier work
[15] = dogs, cited from earlier work
[16] = Repeated dose 1- and 6-month oral toxicity, rats; format: in vivo; conditions: versus 80 mg oral dose in patients
Text: However, there was a slightly lower exposure over time in rats compared to dogs. […] In vitro and in vivo metabolic studies have shown a large number of metabolites with qualitatively similar in vitro profiles in rats, dogs and man. […] Based on the pharmacokinetic parameters of BN83495, it is not expected to have any significant interaction with EGFR inhibitor/s which are metabolised predominantly by CYP3A4 (Roche products—Tarceva Product Information)
The no observed adverse effect level (NOAEL) was 200 mg/kg/day for males and 50 mg/kg/day for females.

[17] = molecular target: T1, STS; conditions: cited from earlier work
[18] = molecular target: CYP2C19 (Homo sapiens, UniProt P33261); conditions: cited from earlier work
[19] = molecular target: T2, hERG current (Homo sapiens, UniProt Q12809); conditions: transfected HEK-293 cells, in vitro; read-out: hERG current inhibition IC50; cited from earlier work
T2 construct: expressed in transfected cells; host or cells: HEK-293

[20] = cited from earlier work; remark: listed apart in the source
[21] = rats, 25, 50, 100 and 200 mg/kg/day

Sequence of CYP2C19 (P33261 whole entry): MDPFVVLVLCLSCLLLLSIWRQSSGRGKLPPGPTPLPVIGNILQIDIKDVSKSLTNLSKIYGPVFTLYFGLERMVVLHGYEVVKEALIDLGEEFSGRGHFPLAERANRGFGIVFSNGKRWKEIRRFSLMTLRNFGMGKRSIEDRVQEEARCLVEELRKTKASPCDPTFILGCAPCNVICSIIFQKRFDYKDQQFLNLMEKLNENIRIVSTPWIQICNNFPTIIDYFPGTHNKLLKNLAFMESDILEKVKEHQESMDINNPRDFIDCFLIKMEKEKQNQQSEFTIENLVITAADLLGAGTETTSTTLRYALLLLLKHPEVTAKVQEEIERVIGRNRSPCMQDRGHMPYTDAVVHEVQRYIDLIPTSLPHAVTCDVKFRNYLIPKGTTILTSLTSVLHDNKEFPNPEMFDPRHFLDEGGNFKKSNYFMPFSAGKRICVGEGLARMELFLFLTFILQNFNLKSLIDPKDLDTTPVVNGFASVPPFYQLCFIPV
T2 sequence (Q12809 whole entry): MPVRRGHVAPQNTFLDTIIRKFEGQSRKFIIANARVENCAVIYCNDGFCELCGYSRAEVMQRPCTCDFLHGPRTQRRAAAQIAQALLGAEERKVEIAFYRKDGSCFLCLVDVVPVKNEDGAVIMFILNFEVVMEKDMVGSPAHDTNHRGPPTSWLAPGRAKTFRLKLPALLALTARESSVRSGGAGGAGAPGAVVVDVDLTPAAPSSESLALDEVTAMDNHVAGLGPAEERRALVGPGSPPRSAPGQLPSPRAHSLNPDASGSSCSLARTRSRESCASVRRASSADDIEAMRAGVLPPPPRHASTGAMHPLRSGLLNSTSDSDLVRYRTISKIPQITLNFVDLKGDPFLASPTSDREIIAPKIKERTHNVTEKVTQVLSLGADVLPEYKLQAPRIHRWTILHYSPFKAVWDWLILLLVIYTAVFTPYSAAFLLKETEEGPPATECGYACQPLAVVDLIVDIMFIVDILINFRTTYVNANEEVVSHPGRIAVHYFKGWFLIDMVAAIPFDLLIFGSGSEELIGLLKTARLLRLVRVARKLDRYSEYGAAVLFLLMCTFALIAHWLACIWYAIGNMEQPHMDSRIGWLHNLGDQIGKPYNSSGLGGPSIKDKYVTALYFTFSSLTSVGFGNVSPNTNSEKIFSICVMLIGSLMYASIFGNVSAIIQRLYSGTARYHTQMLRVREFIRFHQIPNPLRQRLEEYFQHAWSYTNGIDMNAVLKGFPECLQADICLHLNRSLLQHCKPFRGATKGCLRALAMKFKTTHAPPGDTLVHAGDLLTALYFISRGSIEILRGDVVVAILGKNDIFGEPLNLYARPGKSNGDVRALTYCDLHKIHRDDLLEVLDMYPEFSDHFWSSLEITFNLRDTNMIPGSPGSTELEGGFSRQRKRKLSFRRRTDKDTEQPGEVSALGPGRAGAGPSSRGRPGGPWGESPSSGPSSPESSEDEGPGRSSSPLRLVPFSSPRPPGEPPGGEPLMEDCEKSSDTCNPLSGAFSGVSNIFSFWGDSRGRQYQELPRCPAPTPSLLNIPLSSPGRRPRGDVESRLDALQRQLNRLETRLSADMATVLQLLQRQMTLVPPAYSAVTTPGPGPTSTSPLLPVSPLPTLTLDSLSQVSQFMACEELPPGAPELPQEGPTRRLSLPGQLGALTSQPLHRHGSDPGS

## CCCN1C(=O)CC2C3CCc4cc(OS(N)(=O)=O)ccc4C3CC[C@]2(C)C1=O (some centres unmarked) [STX213]
[1]; rodents
  STS inhibition in rodents: effectively inhibit STS activity

## NS(=O)(=O)Oc1ccc2c3c(c(=O)oc2c1)CCCCC3 [BN83495, Sulphamic acid, 6,7,8,9,10,11-hexahydro-6-oxobenzo[b]cyclohepta[d]pyran-3-yl ester]
[2]
  growth of mammary tumours stimulated by estrone sulphate (E1S): blocked the ability of estrone sulphate (E1S) to stimulate the growth
[3]
  mean maximum plasma exposure relative to mean steady state plasma AUC in female patients: 62 fold
  mean maximum plasma exposure relative to mean steady state plasma Cmax in female patients: 103 fold
[4]; 6-month repeat dose rat toxicology studies, Day 1
  plasma exposure versus dose: proportional to dose
[4]; [21]
  bone findings (femur, tibia and sternum): partially reversible osteoid deposition at all treated dose-levels
  liver findings: reversible hepatocellular vacuolation in all treated groups
[4]; females
  no observed adverse effect level (NOAEL): 50 mg/kg/day
[4]; males
  no observed adverse effect level (NOAEL): 200 mg/kg/day
[5]
  protein binding: highly protein bound
[6]
  adverse effects in single dose oral toxicity study: did not show any adverse effects
[7]
  mean steady state plasma AUC: 1293 ng·h/mL
  mean steady state plasma Cmax: 159 ng/mL
[8]
  adrenal findings: adrenal cortical cell hypertrophy was seen in all treated animal groups
  kidney findings: flattened tubular epithelium in one high dose animal/sex
  liver findings: hepatocellular vacuolation in both sexes at 50 mg/kg/day and in females at 250 and 1000 mg/kg/day
[9]; non-clinical studies
  absorption: rapid absorption
[9]; preclinical models, by biotransformation
  elimination of radioactivity: mainly via urine
[9]; rats, primarily in blood and related organs, intestine, liver and kidneys
  distribution: widely distributed
[9]; uptake and retention related to carbonic anhydrase II enzyme
  erythrocyte uptake: sequestered in erythrocytes
[1]; in vivo
  STS inhibition in rodents: potent STS inhibitor
[10]
  effect on behaviour or respiration: no effect on behaviour or respiration
[11]
  action potential duration (APD): increased action potential duration
[12]; 14 patients, 5 mg or 20 mg
  best response: stable disease: 4 patients
[12]; Day 5 assessment
  serum concentrations of oestradiol, androstenediol and testosterone: significant decreases
[12]; both tested doses (5 mg, 20 mg)
  tolerability: well tolerated
[12]; patients, 5 mg and 20 mg
  dose proportionality of Cmax, AUC and mean plasma clearance: non dose proportional pharmacokinetics
[12]; patients, 5 mg or 20 mg
  serum DHEA concentration: significant decreases
[13]
  inhibition of STS in peripheral blood mononuclear cells: 95%
[14]
  adverse effects in single dose oral toxicity study: did not show any adverse effects
[15]; at both doses (150 and 400 mg/kg/day)
  haemodynamic effects: transient hypotension and reflex tachycardia
[15]; oral 150 and 400 mg/kg/day for seven consecutive days
  ECG changes: did not induce any clinically relevant ECG changes
[16]; female rats
  exposure (AUC) in rats relative to mean AUC in female patients: 14 fold
[16]; male rats
  exposure (AUC) in rats relative to mean AUC in female patients: 31 fold
[17]; 5 mg dose
  patients with more than 90% STS inhibition in tumour tissue: 3 out of 4
[17]; 20 mg dose, patients in whom it was measured
  patients with more than 90% STS inhibition in tumour tissue: all 3
[17]; 24 hours after dosing on Day 5, both dose groups (5 mg, 20 mg daily)
  inhibition of STS activity in peripheral blood lymphocytes: more than 90%
[18]
  potential clinically significant induction/inhibition of a CYP450 isoenzyme: inhibition of CYP2C19
[19]
  IC50: 13 µM
[20]; doses 1 mg up to 80 mg
  tolerability: well tolerated up to a dose of 40 mg
[20]; observed in 2 patients
  drug-related adverse events, Grade 3: 4
[20]; preliminary review of ECG data
  effect on ECG parameters: does not have an effect on ECG parameters
[20]; three higher dose groups
  patients with stable disease for more than 6 months: Four
[20]; up to a dose of 40 mg
  dose limiting toxicity: no dose limiting toxicity was observed
